Like-named read-outs stand apart in the source and are kept apart here.
Key:
Cortical Cells = experiment: Neurite Cell Outgrowth Assay, cortical cells; type: cell-based; details: Rattus norvegicus; 50 nM; percent change over the vehicle response; NA = no change/not active
In short: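 Rat E18 hippocampal or cortical neurons plated at 30,000 cells/well, treated 24 h after plating with compound at 50 nM, refreshed on day 3. At one week, fixed and MAP-2 immunostained with FITC secondary, read by fluorescence; outgrowth given as percent change versus vehicle.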

[1] = test system: Male Long-Evans rats, facial nerve compression; experiment: In vivo Facial Nerve Compression Model; design: species or system rat; details: for Percent Recovery of whisker movement D9 / Percent Recovery of whisker movement D10 / Percent Recovery of whisker movement D11 / Percent Recovery of whisker movement D12 / Percent Recovery of whisker movement D13 / Percent Recovery of whisker movement D14: test compounds p.o. 20 mg/kg bid, αMSH s.c. 70 ug/each 48 hr; for Percent Recovery of whisker movement D9: % of sham-operated side; for recovery time to restore whisker muscle movement: lesioned rats vs vehicle controls (p<0.05), p.o. 20 mg/kg bid
Text: The ability of test compound to provide neuro-protective or neuro-regenerative effects was investigated in a facial nerve compression model. Facial nerve motor axons arise exclusively from neurons within the pons in a well-defined nucleus. Facial nerve compression results in retrograde reactions proximal to the lesion site and Wallerian degeneration at its distal part, which causes diminished whisker movement on the lesioned side.
Male Long-Evans rats (150–180 g) were anesthetized with 3–5% isoflorane for induction and 2% for maintenance during the surgical procedures. The right facial nerve was exposed and compressed with forceps for 30 sec at its exit from the stylomastoid foramen. The left facial nerve was sham-operated and served as an internal control. […] The following morphological abnormalities associated with the functional deficit were observed:
After recovery from anesthesia, the rats were randomly divided into groups for dosing with vehicle, αMSH or test compound, with 6 animals per group. αMSH (s.c., 70 ug/each 48 hr) was used as a positive control. Test compounds were dosed p.o. at 20 mg/kg bid for 14 days. Restoration of whisker movement was monitored daily after the operation using two criteria:
(1) frequency of whisker movement on the lesioned side relative to the opposite side (sham-operated) which served as the baseline control
(2) semi-quantitative measurements (0 to 4+) on strength of the whisker muscles, characterized based on observation of the percentage of moved whiskers, muscle tone of whisker muscles, and the position of the nose. For all observations, the experimental design was blind to the behavioral observer.
The recovery rate of the whisker movement was expressed as percentage of its own internal control (sham-operated), as listed in Table 8.

Food-Deprived Rats = experiment: Rodent Feeding: Food Intake in Food-Deprived Rats (MC-4); type: in vivo, rat; details: Rattus norvegicus
Text: Rodent Feeding: Food Intake in Food-Deprived Rats (MC-4)
Male Long-Evans rats (180–200 grams) were housed individually and maintained on a once-a-day feeding schedule (i.e.10 a.m. until 4 p.m.) for five days following quarantine to allow the animals to acclimate to feeding on powdered chow (#5002 PMI Certified Rodent Meal) during the allotted time. The chow was made available in an open jar, anchored in the cage by a wire, with a metal follower covering the food to minimize spillage. Water was available ad-libitum.
Animals were fasted for 18 hours prior to testing. At the end of the fasting period, animals were administered either a test compound or vehicle. Vehicle and test compound were administered either orally (5 mL/kg) 60 minutes prior to the experiment, subcutaneously (1 mL/kg) 30 minutes prior to the experiment, or intraperitoneally (1 mL/kg) 30 minutes prior to the experiment. Test compounds were administered orally as a suspension in aqueous 0.5% methylcellulose-0.4% Tween 80, or intraperitoneally as a solution or suspension in PEG 200; compound concentrations typically ranged from 1 mg/kg to 100 mg/kg, preferably from 10–30 mg/kg. Food intake was measured at 2, 4, and 6 hours after administration by weighing the special jar containing the food before the experiment and at the specified times. Upon completion of the experiment, all animals were given a one-week washout period before re-testing.
Following the procedure described above, select compounds of the present invention were tested to measure the effect on food intake in fasted rats, as listed in Table 5 and 6.

[2] = ip, 2 h, ip, read-out: Change in Food Intake 0–2 hrs (%)
[3] = ip, 6 h, ip, read-out: Change in Food Intake 2–6 hrs (%)
[4] = po, 2 h, po, read-out: Change in Food Intake 0–2 hrs (%)
[5] = po, 6 h, po, read-out: Change in Food Intake 2–6 hrs (%)

| SMILES | activation at 0.05 µM (Cortical Cells) | Percent Recovery of whisker movement D9 [1] | Percent Recovery of whisker movement D10 [1] | Percent Recovery of whisker movement D11 [1] | Percent Recovery of whisker movement D12 [1] | Percent Recovery of whisker movement D13 [1] | Percent Recovery of whisker movement D14 [1] | recovery time to restore whisker muscle movement [1] | change in vivo at 1 mg/kg (Food-Deprived Rats; [2]) | change in vivo at 3 mg/kg (Food-Deprived Rats; [2]) | change in vivo at 1 mg/kg (Food-Deprived Rats; [3]) | change in vivo at 3 mg/kg (Food-Deprived Rats; [3]) | change in vivo at 1 mg/kg (Food-Deprived Rats; [4]) | change in vivo at 3 mg/kg (Food-Deprived Rats; [4]) | change in vivo at 10 mg/kg (Food-Deprived Rats; [4]) | change in vivo at 30 mg/kg (Food-Deprived Rats; [4]) | change in vivo at 1 mg/kg (Food-Deprived Rats; [5]) | change in vivo at 3 mg/kg (Food-Deprived Rats; [5]) | change in vivo at 10 mg/kg (Food-Deprived Rats; [5]) | change in vivo at 30 mg/kg (Food-Deprived Rats; [5]) |
| --- | --- | --- | --- | --- | --- | --- | --- | --- | --- | --- | --- | --- | --- | --- | --- | --- | --- | --- | --- | --- |
| COc1ccccc1-[n+]1sc(Nc2ccc(C)cc2)nc1-c1ccccc1.[Br-] [Compound 31, 2-(2-methoxyphenyl)-3-phenyl-5-p-tolylamino-[1,2,4]thiadiazol-2-ium] | 16% | 0% | 3.5% | 67.8% | 98.5% | 100% | 100% | accelerated the recovery time | -20.6% | -37.8% | -71.2% | -50% | 1.2% | -9% | -10.1% | -23.6% | 19.5% | 52.1% | 39.7% | 31.5% |
| c1ccc(CNc2nc(-c3ccccc3)[n+](-c3ccccc3)s2)cc1 [Compound 84] | 17% | 0% | 4.8% | 35.1% | 90.0% | 98.3% | 100% | accelerated the recovery time | – | – | – | – | – | – | – | -7% | – | – | – | 32% |

— patent publication US7049331B2, “1,2,4-thiadiazole derivatives as melanocortin receptor modulators” (Ortho-McNeil Pharmaceutical, Inc., priority 2001, dated 2006)
